# In US9718828B2 (MERCK SHARP & DOHME CORP., priority 2011, dated 2017):
# Where a name gives a salt, the structure may show the parent alone.
# Target: Btk enzyme (His-Btk) (Homo sapiens (Human), UniProt Q06187)
# Test: Btk enzyme activity, IMAP fluorescence polarization assay (Assay Method A)
# Details: not given
# Sequence of Btk enzyme (His-Btk) (Q06187 whole entry): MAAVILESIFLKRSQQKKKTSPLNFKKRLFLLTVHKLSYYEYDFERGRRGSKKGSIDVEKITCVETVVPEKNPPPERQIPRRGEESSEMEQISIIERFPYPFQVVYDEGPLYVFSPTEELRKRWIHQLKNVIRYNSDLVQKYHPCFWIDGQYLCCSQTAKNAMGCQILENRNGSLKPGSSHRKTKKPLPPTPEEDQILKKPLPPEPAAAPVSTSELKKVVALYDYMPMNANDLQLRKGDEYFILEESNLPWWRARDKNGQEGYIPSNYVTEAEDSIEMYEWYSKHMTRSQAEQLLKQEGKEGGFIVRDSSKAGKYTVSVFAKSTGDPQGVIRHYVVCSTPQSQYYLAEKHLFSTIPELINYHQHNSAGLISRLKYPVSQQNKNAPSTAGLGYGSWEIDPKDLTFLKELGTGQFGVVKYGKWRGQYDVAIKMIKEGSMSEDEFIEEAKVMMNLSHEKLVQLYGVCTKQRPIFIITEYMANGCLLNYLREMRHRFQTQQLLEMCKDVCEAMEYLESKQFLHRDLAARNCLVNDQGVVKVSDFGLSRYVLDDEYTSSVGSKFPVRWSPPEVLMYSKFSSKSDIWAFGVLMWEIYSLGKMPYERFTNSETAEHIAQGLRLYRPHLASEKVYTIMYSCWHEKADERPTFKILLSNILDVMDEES
row,EC50 [nM],Compound
1,10 to 100,"CN(C)CCCC(=O)N1CCC[C@@H](c2nc(-c3ccc(C(=O)Nc4ccccn4)cc3)c3c(N)nccn23)C1 [Example 51, (R)-4-(8-amino-3-(1-(4-(dimethylamino)butanoyl)piperi-din-3-yl)imidazo[1,5-a]pyrazin-1-yl)-N-(pyridin-2-yl)benzamide]"
2,10 to 100,"Nc1nccn2c([C@@H]3CCCN(C(=O)CO)C3)nc(-c3ccc(C(=O)Nc4ccccn4)cc3)c12 [Example 53, (R)-4-(8-amino-3-(1-(2-hydroxyacetyl)piperidin-3-yl)imidazo[1,5-a]pyrazin-1-yl)-N-(pyridin-2-yl)benzamide]"
3,10 to 100,"Nc1nccn2c([C@@H]3CCCN(Cc4ccc[nH]4)C3)nc(-c3ccc(C(=O)Nc4cc(C5CC5)ccn4)cc3)c12 [Example 144, (R)-4-(3-(1-((1H-pyrrol-2-yl)methyl)piperidin-3-yl)-8-aminoimidazo[1,5-a]pyrazin-1-yl)-N-(4-cyclopropylpyridin-2-yl)benzamide, TFA salt]"
4,< 10,"COCCOCCC(=O)N1CCC[C@@H](c2nc(-c3ccc(C(=O)Nc4cc(C(F)(F)F)ccn4)cc3)c3c(N)nccn23)C1 [Example 68, (R)-4-(8-amino-3-(1-(3-(2-methoxyethoxy)propanoyl)piperidin-3-yl)imidazo[1,5-a]pyrazin-1-yl)-N-(4-(trifluoromethyl)pyridin-2-yl)benzamide]"
5,< 10,"CC(C)C(=O)N1CCOC(c2nc(-c3ccc(C(=O)Nc4cc(C(F)(F)F)ccn4)cc3)c3c(N)nccn23)C1 (stereo not shown) [Example 173, 4-(8-amino-3-(4-isobutyrylmorpholin-2-yl)imidazo[1,5-a]pyrazin-1-yl)-N-(4-(trifluoromethyl)pyridin-2-yl)benzamide]"
6,10 to 100,"C[C@@H]1CC[C@@H](c2nc(-c3ccc(C(=O)Nc4cc(C(F)(F)F)ccn4)cc3)c3c(N)nccn23)CN1C(=O)C1CC1 (relative stereo) [Example 188, 4-(8-amino-3-((trans)-1-(cyclopropanecarbonyl)-6-methylpiperidin-3-yl)imidazo[1,5-a]pyrazin-1-yl)-N-(4-(trifluoromethyl)pyridin-2-yl)benzamide, TFA salt]"

# More lines, now with the values behind:
row,Compound,EC50 [nM]
1,"CC(C)(F)C(=O)N1CCC[C@@H](n2nc(-c3ccc(C(=O)Nc4cc(C(F)(F)F)ccn4)cc3)c3c(N)ncnc32)C1 [Example 270, (R)-4-(4-amino-1-(1-(2-fluoro-2-methylpropanoyl)piperidin-3-yl)-1H-pyrazolo[3,4-d]pyrimidin-3-yl)-N-(4-(trifluoromethyl)pyridin-2-yl)benzamide]",10 to 100
2,"Nc1ncnc2c1c(-c1ccc(C(=O)Nc3cc(C(F)(F)F)ccn3)cc1)nn2[C@@H]1CCCN(C(=O)[C@H]2CCCO2)C1 [Example 262, 4-(4-amino-1-((R)-1-((R)-tetrahydrofuran-2-carbonyl)piperidin-3-yl)-1H-pyrazolo[3,4-d]pyrimidin-3-yl)-N-(4-(trifluoromethyl)pyridin-2-yl)benzamide]",< 10
3,"COCCC(=O)N1CCC[C@@H](c2nc(-c3ccc(C(=O)Nc4ccccn4)nc3)c3c(N)nccn23)C1 [Example 287, (R)-5-(8-amino-3-(1-(3-methoxypropanoyl)piperidin-3-yl)imidazo[1,5-a]pyrazin-1-yl)-N-(pyridin-2-yl)picolinamide, TFA salt]",10 to 100
4,"Nc1nccn2c([C@@H]3CCCN(C(=O)CC4CC4)C3)nc(-c3ccc(C(=O)Nc4ccccn4)cc3)c12 [Example 92, (R)-4-(8-amino-3-(1-(2-cyclopropylacetyl)piperidin-3 yl)imidazo[1,5-a]pyrazin-1-yl)-N-(pyridin-2-yl)benzamide]",< 10
5,"CC1(C(=O)N2CCC[C@@H](c3nc(-c4ccc(C(=O)Nc5cc(C(F)(F)F)ccn5)cc4)c4c(N)ncc(C5CC5)n34)C2)COC1 [Example 303, (R)-4-(8-amino-5-cyclopropyl-3-(1-(3-methyloxetane-3-carbonyl)piperidin-3-yl)imidazo[1,5-a]pyrazin-1-yl)-N-(4-(trifluoromethyl)pyridin-2-yl)benzamide]",10 to 100
6,Nc1nccn2c([C@@H]3CCCN(C(=O)NC45CC6CC(CC(C6)C4)C5)C3)nc(-c3ccc(C(=O)Nc4cc(C5CC5)ccn4)cc3)c12 [Example 121],10 to 100
7,"Nc1nccn2c([C@@H]3CCCN(C(=O)C45CC(C4)C5)C3)nc(-c3ccc(C(=O)Nc4cc(C(F)(F)F)ccn4)cc3)c12 [Example 90, (R)-4-(8-amino-3-(1-(bicyclo[1.1.1]pentane-1-carbonyl)piperidin-3-yl)imidazo[1,5-a]pyrazin-1-yl)-N-(4-(trifluoromethyl)pyridin-2-yl)benzamide]",< 10
8,"Cc1nc(-c2ccc(C(=O)Nc3cc(C(F)(F)F)ccn3)cc2)c2c(N)ncc(C(=O)NCc3cccnc3)n12 [Example 296, 8-amino-3-methyl-N-(pyridin-3-ylmethyl)-1-(4-(4-(trifluoromethyl)pyridin-2-ylcarbamoyl)phenyl)imidazo[1,5-a]pyrazine-5-carboxamide]",100 to 1000
9,"Nc1nccn2c([C@@H]3CCCN(C(=O)C4(O)CCC4)C3)nc(-c3ccc(C(=O)Nc4cc(C(F)(F)F)ccn4)cc3)c12 [Example 81, (R)-4-(8-amino-3-(1-(1-hydroxycyclobutanecarbonyl)piperidin-3-yl)imidazo[1,5-a]pyrazin-1-yl)-N-(4-(trifluoromethyl)pyridin-2-yl)benzamide]",< 10

# Same assay, conditions: read-out: EC50 Btk activity values - Assay Method A; IMAP-FP, 60 min pre-incubation, 5 μM ATP
row,Compound,EC50 [nM]
1,"Nc1nccn2c1c(-c1ccc(C(=O)Nc3nc4c(s3)CNCC4)cc1)nc2[C@H]1CC[C@H](O)CC1 [Example 17, 4-(8-amino-3-((trans)-4-hydroxycyclohexyl)imidazo[1,5-a]pyrazin-1-yl)-N-(4,5,6,7-tetrahydrothiazolo[5,4-c]pyridin-2-yl)benzamide]",≥ 1000

# Same assay, conditions: read-out: EC50 Btk activity values - Assay Method A; IMAP-FP, 60 min pre-incubation, 5 μM ATP; class 100-1000 is given as ≧100 nM-<1 μM
row,EC50 [nM],Compound
1,< 10,"COCCNC(=O)C1CCCN(c2nc(-c3ccc(C(=O)Nc4cc(C(F)(F)F)ccn4)cc3)c3c(N)nccn23)C1 (stereo not shown) [Example 232, 1-(8-amino-1-(4-(4-(trifluoromethyl)pyridin-2-ylcarbamoyl)phenyl)imidazo[1,5-a]pyrazin-3-yl)-N-(2-methoxyethyl)piperidine-3-carboxamide, TFA salt]"
2,< 10,"COCCC(=O)N1C[C@H](c2nc(-c3ccc(C(=O)Nc4cc(C5CC5)ccn4)cc3)c3c(N)nccn23)CC[C@@H]1C (relative stereo) [Example 183, 4-(8-amino-3-((cis)-1-(3-methoxypropanoyl)-6-methylpiperidin-3-yl)imidazo[1,5-a]pyrazin-1-yl)-N-(4-cyclopropylpyridin-2-yl)benzamide, TFA salt]"
3,< 10,"CC(C)(F)C(=O)N1CCOC(c2nc(-c3ccc(C(=O)Nc4cc(C(F)(F)F)ccn4)cc3)c3c(N)nccn23)C1 (stereo not shown) [Example 174, 4-(8-amino-3-(4-(2-fluoro-2-methylpropanoyl)morpholin-2-yl)imidazo[1,5-a]pyrazin-1-yl)-N-(4-(trifluoromethyl)pyridin-2-yl)benzamide]"
4,< 10,"CSCCC(=O)N1C[C@H](c2nc(-c3ccc(C(=O)Nc4cc(C(F)(F)F)ccn4)cc3)c3c(N)nccn23)CC[C@@H]1C (relative stereo) [Example 195, 4-(8-amino-3-((cis)-6-methyl-1-(3-(methylthio)propanoyl)piperidin-3-yl)imidazo[1,5-a]pyrazin-1-yl)-N-(4-(trifluoromethyl)pyridin-2-yl)benzamide, TFA salt]"
5,< 10,"CCNC(=O)N1CCC[C@@H](c2nc(-c3ccc(C(=O)Nc4cc(C#N)ccn4)cc3)c3c(N)nccn23)C1 [Example 101, (R)-3-(8-amino-1-(4-(4-cyanopyridin-2-ylcarbamoyl)phenyl)imidazo [1,5-a]pyrazin-3-yl)-N-ethylpiperidine-1-carboxamide]"
6,< 10,"CCCc1ccnc(NC(=O)c2ccc(-c3nc(N(CC)CC)n4ccnc(N)c34)cc2)c1 [Example 214, 4-(8-amino-3-(diethylamino)imidazo[1,5-a]pyrazin-1-yl)-N-(4-propylpyridin-2-yl)benzamide]"
7,< 10,"CC(C)NC(=O)C1CCCN(c2nc(-c3ccc(C(=O)Nc4cc(C(F)(F)F)ccn4)cc3)c3c(N)nccn23)C1 (stereo not shown) [Example 224, 1-(8-amino-1-(4-(4-(trifluoromethyl)pyridin-2-ylcarbamoyl)phenyl)imidazo[1,5-a]pyrazin-3-yl)-N-isopropylpiperidine-3-carboxamide]"
8,< 10,"COCCC(=O)N[C@@H]1CCC[C@@H](c2nc(-c3ccc(C(=O)Nc4cc(C(F)(F)F)ccn4)cc3)c3c(N)nccn23)C1 (relative stereo) [Example 166, 4-(8-amino-3-((trans)-3-(3-methoxypropanamido)cyclohexyl)imidazo[1,5-a]pyrazin-1-yl)-N-(4-(trifluoromethyl)pyridin-2-yl)benzamide]"

# The remaining lines, values behind:
row,Compound,EC50 [nM]
1,"Nc1nccn2c(N3CCC[C@H](NC(=O)C4CC4)C3)nc(-c3ccc(C(=O)Nc4cc(C(F)(F)F)ccn4)cc3)c12 [Example 222, (S)-4-(8-amino-3-(3-(cyclopropanecarboxamido)piperidin-1-yl)imidazo[1,5-a]pyrazin-1-yl)-N-(4-(trifluoromethyl)pyridin-2-yl)benzamide]",< 10
2,"COCCC(=O)N1CCC[C@@H](c2nc(-c3ccc(C(=O)Nc4ccccn4)cc3F)c3c(N)nccn23)C1 [Example 284, 4-(8-amino-3-((R)-1-(3-methoxypropanoyl)piperidin-3-yl)imidazo[1,5-a]pyrazin-1-yl)-3-fluoro-N-(pyridin-2-yl)benzamide, TFA salt]",< 10
3,"Nc1ncnc2c1c(-c1ccc(C(=O)Nc3cc(C(F)(F)F)ccn3)cc1)nn2[C@@H]1CCCN(C(=O)C2CC(F)(F)C2)C1 [Example 278, (R)-4-(4-amino-1-(1-(3,3-difluorocyclobutanecarbonyl)piperidin-3-yl)-1H-pyrazolo[3,4-d]pyrimidin-3-yl)-N-(4-(trifluoromethyl)pyridin-2-yl)benzamide]",< 10
4,"Nc1nccn2c(N3CCCC(C(=O)N4CCCC4)C3)nc(-c3ccc(C(=O)Nc4cc(C5CC5)ccn4)cc3)c12 (stereo not shown) [Example 247, 4-(8-amino-3-(3-(pyrrolidine-1-carbonyl)piperidin-1-yl)imidazo[1,5-a]pyrazin-1-yl)-N-(4-cyclopropylpyridin-2-yl)benzamide, TFA salt]",< 10
